We go through one molecule from ChEMBL document CHEMBL3045068, “Effect of methomyl and oxamyl soil applications on early control of nematodes and insects” (Pest Manag Sci, 2011).

≈ marks a conversion by molar mass, not a printed value.

As usually defined, the LC50 is the concentration lethal to half of the exposed cells or organisms.

One data set deals with Gossypium hirsutum. As to the kind of experiment: Phytotoxicity in Gossypium hirsutum (cotton) assessed as concentration required to cause foliar edge burn applied through foliar spray after 3 weeks. The data set is classed as organism-based. The conditions noted are these: in vivo, other, 504 h.
For data set [1], the system named is Meloidogyne incognita. Put plainly: Nematicidal activity against second juvenile stage of Meloidogyne incognita (root-knot nematode) infected pea plant assessed as plant fresh weight at 4 kg ai/ha applied to soil measured up to 7 days post planting under green house conditions (reference value: 4.3 +/- 0.56 g). The data set is classed as functional.
Data set [2] deals with Phaseolus lunatus. Put plainly: Phytotoxicity in Phaseolus lunatus (lima bean) plant assessed as plant dry weight at 1.56 kg ai/ha applied to soil measured up to 7 days under green house conditions (reference value: 1.20 +/- 0.21 g). Type of data set: organism-based. The conditions noted are these: in vivo, other, 168 h.
The test system of data set [3] is Pisum sativum. As to the kind of experiment: Phytotoxicity in Pisum sativum (pea) assessed as plant height at 2 kg ai/ha applied to soil measured up to 7 days post planting at 19 degC (reference value: 6.2 +/- 0.6 cm). Type of data set: organism-based. The conditions noted are these: lathyrus oleraceus, in vivo, other, 168 h.
Data set [4] concerns Meloidogyne incognita. Put plainly: Nematicidal activity against second juvenile stage of Meloidogyne incognita (root-knot nematode) infected pea plant assessed as emergence at 4 kg ai/ha applied to soil measured up to 7 days post planting under green house conditions (reference value: 75 +/- 13%). The data set is classed as functional.
The subject of data set [5] is Meloidogyne incognita. Put plainly: Nematicidal activity against second juvenile stage of Meloidogyne incognita (root-knot nematode) infected pea plant assessed as plant fresh weight at 2 kg ai/ha applied to soil measured up to 7 days post planting under green house conditions (reference value: 4.3 +/- 0.56 g). The data set is classed as functional.
The subject of data set [6] is Meloidogyne incognita. As to the kind of experiment: Nematicidal activity against second juvenile stage of Meloidogyne incognita (root-knot nematode) infected pea plant assessed as root fresh weight at 2 kg ai/ha applied to soil measured up to 7 days post planting under green house conditions (reference value: 1.83 +/- 0.3 g). Type of data set: functional.
In data set [7] the test system is Meloidogyne incognita. As to the kind of experiment: Nematicidal activity against second juvenile stage of Meloidogyne incognita (root-knot nematode) infected pea plant assessed as emergence at 4 kg ai/ha applied to soil measured up to 14 days post planting under green house conditions (reference value: 75 +/- 13%). Type of data set: functional.
In data set [8] the test system is Phaseolus lunatus. Put plainly: Phytotoxicity in Phaseolus lunatus (lima bean) plant assessed as emergence at 3.12 kg ai/ha applied to soil measured up to 14 days under green house conditions (reference value: 70 +/- 16%). Type of data set: organism-based. The conditions noted are these: in vivo, other, 336 h.
For data set [9], the system named is Pisum sativum. As to the kind of experiment: Phytotoxicity in Pisum sativum (pea) assessed as plant fresh weight at 3 kg ai/ha applied to soil measured up to 7 days post planting at 19 degC (reference value: 9.4 +/- 0.54 g). Type of data set: organism-based. The conditions noted are these: lathyrus oleraceus, in vivo, other, 168 h.
For the next data set, the system named is Myzus persicae. Put plainly: Insecticidal activity against Myzus persicae (green peach aphid) infested tomato assessed as mortality applied through foliar spray after 5 days. Type of data set: functional.
Data set [10] concerns Meloidogyne incognita. As to the kind of experiment: Nematicidal activity against second juvenile stage of Meloidogyne incognita (root-knot nematode) infected lima bean plant assessed as reduction in root gall index at 2 kg ai/ha applied to soil measured up to 7 days post planting under green house conditions (reference value: 7 +/- 0.27%). Type of data set: functional.
The test system of data set [11] is Meloidogyne incognita. Put plainly: Nematicidal activity against second juvenile stage of Meloidogyne incognita (root-knot nematode) infected pea plant assessed as reduction in root gall index at 2 kg ai/ha applied to soil measured up to 7 days post planting under green house conditions (reference value: 9.7 +/- 0.30%). The data set is classed as functional.
In data set [12] the test system is Meloidogyne incognita. As to the kind of experiment: Nematicidal activity against second juvenile stage of Meloidogyne incognita (root-knot nematode) infected pea plant assessed as root fresh weight at 3 kg ai/ha applied to soil measured up to 14 days post planting under green house conditions (reference value: 1.83 +/- 0.3 g). Type of data set: functional.
The test system of data set [13] is Pisum sativum. Put plainly: Phytotoxicity in Pisum sativum (pea) assessed as plant fresh weight at 3 kg ai/ha applied to soil measured up to 7 days post planting at 27 degC under green house conditions (reference value: 3.9 +/- 0.83 g). The conditions noted are these: lathyrus oleraceus, in vivo, other, 168 h. Type of data set: organism-based.
The test system of data set [14] is Meloidogyne incognita. As to the kind of experiment: Nematicidal activity against second juvenile stage of Meloidogyne incognita (root-knot nematode) infected lima bean plant assessed as root dry weight at 2 kg ai/ha applied to soil measured during planting under green house conditions (reference value: 0.5 +/- 0.052 g). Type of data set: functional.
Data set [15] relates to Pisum sativum. As to the kind of experiment: Phytotoxicity in Pisum sativum (pea) assessed as root dry weight at 2 kg ai/ha applied to soil measured up to 7 days post planting at 27 degC under green house conditions (reference value: 0.33 +/- 0.075 g). Type of data set: organism-based. The conditions noted are these: lathyrus oleraceus, in vivo, other, 168 h.
In data set [16] the test system is Meloidogyne incognita. Put plainly: Nematicidal activity against second juvenile stage of Meloidogyne incognita (root-knot nematode) infected pea plant assessed as reduction in root gall index at 3 kg ai/ha applied to soil measured up to 14 days post planting under green house conditions (reference value: 9.7 +/- 0.30%). Type of data set: functional.
For data set [17], the system named is Phaseolus lunatus. As to the kind of experiment: Phytotoxicity in Phaseolus lunatus (lima bean) plant assessed as plant dry weight at 1.12 kg ai/ha applied to soil under green house conditions (reference value: 1.20 +/- 0.21 g). Type of data set: organism-based. The conditions noted are these: in vivo, other.
Data set [18] has as its system Phaseolus lunatus. Put plainly: Phytotoxicity in Phaseolus lunatus (lima bean) root assessed as root dry weight at 2.56 kg ai/ha applied to soil measured up to 14 days under green house conditions (reference value: 0.36 +/- 0.071 g). The data set is classed as organism-based. The conditions noted are these: in vivo, other, 336 h.
Data set [19] relates to Meloidogyne incognita. As to the kind of experiment: Nematicidal activity against second juvenile stage of Meloidogyne incognita (root-knot nematode) assessed as mortality after 72 hr. The data set is classed as functional.
In data set [20] the test system is Phaseolus lunatus. As to the kind of experiment: Phytotoxicity in Phaseolus lunatus (lima bean) plant assessed as emergence at 1.12 kg ai/ha applied to soil under green house conditions (reference value: 70 +/- 16%). Type of data set: organism-based. The conditions noted are these: in vivo, other.

Consider `CNC(=O)ON=C(C)SC` [METHOMYL], for which the Activity with Gossypium hirsutum turned out to be 100 µg/mL; in the data set with Meloidogyne incognita [1], 5.5 g; in the data set on Phaseolus lunatus [2], 1.26 g; in the data set on Pisum sativum [3], 7.3 cm; in the data set on Meloidogyne incognita [4], 88%; with Meloidogyne incognita [5], 7.1 g. Moreover, the Activity is listed as 2.04 g in the data set on Meloidogyne incognita [6]; 38% with Meloidogyne incognita [7]; 60% in the data set on Phaseolus lunatus [8]; 9.4 g in the data set on Pisum sativum [9]; 0.89 g in the data set on Meloidogyne incognita [12]; 3.3 g with Pisum sativum [13]. Also, the Activity in the data set with Meloidogyne incognita [14] was found to be 0.36 g; with Pisum sativum [15] it was 0.16 g; with Phaseolus lunatus [17], 1.51 g; with Phaseolus lunatus [18], 0.31 g; with Phaseolus lunatus [20] it was 80%. For the same molecule, the figures for the LC90 with Myzus persicae and in the data set with Meloidogyne incognita [19] were 44 mg/L (≈ 271 µM) and 9.8 mg/L (≈ 60.4 µM), respectively. The LC50 with Myzus persicae (Myzus persicae, foliar, 120 h) was 9 mg/L (≈ 55.5 µM); in the data set on Meloidogyne incognita [19] (Meloidogyne incognita, Juvenile stage, 72 h), 3.6 mg/L (≈ 22.2 µM). The Root_galling_index with Meloidogyne incognita [10], with Meloidogyne incognita [11] and in the data set on Meloidogyne incognita [16] was 0% each time.
